Measurements: patent US9738591B2, “Antimicrobial compounds” (priority 2009, dated 2017)
In brackets after ≈: the same amount, converted by molar mass. Like-named read-outs stand apart in the source and are kept apart here.

What was measured:
[1] = tested on: Enterococcus faecalis NCTC 775; experiment: Disk diffusion; settings: 10 mg/ml, 20 μl
[2] = tested on: Aeromonas hydrophila NCTC 8049/ATCC 7966; experiment: Disk diffusion; settings: 10 mg/ml, 20 μl; repeat
[3] = tested on: Bacillus cereus ATCC 13061; experiment: Disk diffusion; settings: 10 mg/ml, 20 μl
[4] = tested on: Streptococcus pneumoniae strain 12213; experiment: Disk diffusion; format: cell-based; settings: 10 mg/ml, 20 μl
[5] = tested on: Staphylococcus xylosus ATCC 29971; experiment: Disk diffusion; settings: 10 mg/ml, 20 μl
[6] = tested on: Stenotrophomonas maltophilia M2495; experiment: Disk diffusion; format: cell-based; settings: 10 mg/ml, 20 μl, strain M2495
[7] = tested on: Staphylococcus aureus NCTC 6571/ATCC 9144; experiment: Disk diffusion; settings: for zone of inhibition at 10000 µg/mL: Staphylococcus aureus
[8] = Storage stability of master stock solution; format: physicochemical; settings: 10 mg/ml in 100% DMSO, foil-covered glass bottles, −20° C.; results not shown
Description: 10 mg/ml stock solution of TSB007 was prepared in 100% DMSO. Master stock solutions of TSB007 (10 mg/ml) were made by dissolving 20 mg dehydrated compound in 2 ml 100% DMSO. They were stored in foil-covered glass bottles at −20° C. Master stocks stored in this way retained full antimicrobial activity for a minimum period of 6 weeks (results not shown).

[9] = tested on: S. epidermidis ATCC 12228; experiment: MIC and MBC by broth microdilution; format: cell-based; settings: Staphylococcus epidermidis, ATCC12228, CA-MHB, two independent replicates
[10] = tested on: Enterococcus faecium ATCC 19434; experiment: Disk diffusion; format: cell-based; settings: 10 mg/ml, 20 μl
[11] = tested on: Moraxella catarrhalis NCTC 3625; experiment: Disk diffusion; settings: 10 mg/ml, 20 μl; repeat, strain NCTC 3625
[12] = tested on: Salmonella enterica subsp. enterica serovar Typhimurium ATCC 13311; experiment: Disk diffusion; settings: 10 mg/ml, 20 μl; repeat
[13] = tested on: Clostridium difficile NCTC 43593; experiment: Disk diffusion; format: cell-based; settings: 10 mg/ml, 20 μl, BA - prereduced, anaerobe
Description: (§1) Plates were incubated at 35° C.

[14] = tested on: Shigella flexneri NCTC 8192; experiment: Disk diffusion; format: cell-based; settings: 10 mg/ml, 20 μl; repeat
Description: as §1

[15] = tested on: S. aureus and S. epidermidis; experiment: MIC by broth microdilution; format: cell-based; settings: CA-MHB, read-out: lowest MICs
Description: The method used was based on CLSI protocols for broth microdilution testing of these species. As recommended by CLSI, inocula were prepared by direct colony suspension, and the media used were cation-adjusted Mueller Hinton broth (CA-MHB) for Staphylococcus spp. and CA-MHB containing 5% lysed horse blood (CA-MHB+LHB) for Streptococcus spp. Briefly, 24 h blood agar plate (BA) cultures of Staphylococcus aureus strains NCTC 6571, ATCC 29213, ATCC 33592 (MRSA) and NCTC 10442 (MRSA), Staphylococcus epidermidis ATCC 29971, Staphylococcus xylosus ATCC 29971, Streptococcus pneumoniae strains ATCC 49619 and ATCC 6305, and Streptococcus pyogenes strains NCTC 8191 and NCTC 8302 were used to prepare 0.5 McFarland suspensions in saline. Two 640 μg/ml working stocks of TSB007 were prepared from a fresh master stock, one in CA-MHB for testing against the Staphylococcus spp. and the other in CA-MHB+LHB for testing against Streptococcus spp. […]
The wells of two 96-well microtitre trays (one for Staphylococcus spp. and one for Streptococcus spp.) were filled with 100 μl of the appropriate broth, except for the first column. […] The microtitre trays were then incubated at 35° C. for 24 h before the MICs were read visually. Wells were further subcultured (10 μl drop onto BA then incubated at 35° C. for 24 h) and colonies subsequently counted to determine minimum bactericidal concentrations (MBCs). […]

[16] = tested on: Streptococcus pyogenes NCTC 8191; experiment: Disk diffusion; settings: 10 mg/ml, 20 μl
[17] = tested on: Moraxella catarrhalis ATCC 25238; experiment: Disk diffusion; format: cell-based; settings: 10 mg/ml, 20 μl, incubated in 5% CO2

O=C(O)c1ccc(/C=C/c2cc(/C=C/c3ccc(C(=O)O)cc3)cc(/C=C/c3ccc(C(=O)O)cc3)c2)cc1 [TSB007]
Zone diameters, 24 h TSB007 ([1]; 24 h): 10 trim
Zone diameters, 48 h TSB007 ([1]; 48 h): 10 trim
Zone diameters, Repeat Results ([1]; repeat): 8 trim
Zone diameters, Repeat Results [2]: 8 trim
Zone diameters, 24 h TSB007 ([3]; 24 h): 10 trim
Zone diameters, 48 h TSB007 ([3]; 48 h): 9 trim
Zone diameters, Repeat Results ([3]; repeat): 9 trim
Zone diameters, Repeat Results [4]: 26 trim
Zone diameters, 24 h TSB007 ([5]; 24 h): 17 trim
Zone diameters, Repeat Results ([5]; repeat): 18 trim
Zone diameters, Repeat Results [6]: 9 trim
Zone diameters, 24 h TSB007 ([7]; 10 mg/ml, 20 μl, 24 h): 20 trim
Zone diameters, 48 h TSB007 ([7]; 10 mg/ml, 20 μl, 48 h): 9 trim
Zone diameters, 48 h O2 ([7]; 10 mg/ml, 20 μl, 48 h, incubated aerobically): No zone
Zone diameters, Repeat Results ([7]; 10 mg/ml, 20 μl, repeat): 21 trim
zone of inhibition at 10000 µg/mL ([7]; ATCC9144|NCTC6571, 24 h, read-out: Zone diameters, 24 h AnO2): 18 mm
zone of inhibition at 10000 µg/mL ([7]; ATCC9144|NCTC6571, 24 h, read-out: Zone diameters, 24 h O2): 14 mm
zone of inhibition at 10000 µg/mL ([7]; ATCC9144|NCTC6571, 48 h, read-out: Zone diameters, 48 h AnO2): 18 mm
minimum period for which master stocks retained full antimicrobial activity [8]: ≥ 6 weeks
MIC ([9]; 35° C., 24 h): 2 to 4 µg/mL (≈ 3.87 to 7.74 µM)
MBC [9]: > 32 µg/mL
Zone diameters, 24 h TSB007 ([10]; 24 h): 11 trim
Zone diameters, 48 h TSB007 ([10]; 48 h): 10 trim
Zone diameters, Repeat Results [11]: 36 trim
Zone diameters, Repeat Results [12]: 11 trim
Zone diameters, 24 h TSB007 ([13]; 24 h): 10 trim
Zone diameters, 48 h TSB007 ([13]; 48 h): 10 trim
Zone diameters, Repeat Results [14]: 8.5 trim
MIC [15]: 4 µg/mL (≈ 7.74 µM)
Zone diameters, 24 h TSB007 ([16]; 24 h, Mueller Hinton + Blood & Incubated in 5% CO2): 14 trim
Zone diameters, 48 h TSB007 ([16]; 48 h, Mueller Hinton + Blood & Incubated in 5% CO2): 14 trim
Zone diameters, Repeat Results ([16]; repeat): 17 trim
Zone diameters, 24 h TSB007 ([17]; 24 h): 25 trim
Zone diameters, 48 h TSB007 ([17]; 48 h): 25 trim
